# Measured values reported in patent US9956225B2, “Treatment of myelodysplastic syndrome” (Boehringer Ingelheim International GmbH, priority 2013, dated 2018).
# How the values were obtained:
# [1] = Body weight change in MV4;11 nude mouse xenograft model (side effects); type: in vivo; conditions: 21 days, tumor-bearing nude mice
# Method: Tumor-bearing mice were treated for 3 weeks intravenously either with vehicle or with 10 mg/kg or 20 mg/kg Volasertib, respectively, once weekly. Median changes in body weight compared to day 1 are plotted over time. Day 1 was the first day, day 21 the last day of the experiment.
# (§1) Mice were 8-9 week-old athymic female BomTac: NMRI-Foxn1^nu purchased from Taconic, Denmark. After arrival in the animal facility, mice were allowed to adjust to ambient conditions for at least 3 days before they were used for experiments. They were housed in Macrolon® type II cages in groups of 5 under standardized conditions at 21.5±1.5° C. temperature and 55±10% humidity. Standardized diet (PROVIMI KLIBA) and autoclaved tap water were provided ad libitum.
# Volasertib (BI 6727) was dissolved in hydrochloric acid (0.1 N), diluted with 0.9% NaCl and injected intravenously into the tail vein. An administration volume of 10 ml per kg body weight was used. The solution was freshly made up each injection day.
# (§2) The tumor diameter was measured three times a week with a caliper. The volume of each tumor [in mm^3] was calculated according to the formula “tumor volume=length*diameter^2*π/6”. To monitor side effects of treatment, mice were inspected daily for abnormalities and body weight was determined three times a week. […]
# [2] = tested on: human AML cell line MV4;11; assay: Nude mouse xenograft model derived from human AML cell line MV4;11: tumor growth; type: in vivo; conditions: 21 days, MV4;11 xenograft in nude mice
# Method: Tumor-bearing mice were treated for 3 weeks intravenously either with vehicle or once weekly with 10 mg/kg or 20 mg/kg Volasertib (BI 6727), respectively. Median tumor volumes are plotted over time. Day 1 was the first day, day 21 the last day of the experiment. Efficacy results from this xenograft model are considered valid for MDS.
# MV4;11 (CRL-9591) cells were obtained from ATCC. According to the Catalogue of Somatic Mutations in Cancer of the Wellcome Trust Sanger Institute, UK, this cell line carries a mutation in the FLT3 gene. Cells were cultured in T175 tissue culture flasks at 37° C. and 5% CO2. The medium used was IMDM supplemented with 10% fetal calf serum, 1% NEAA, 1% sodium pyruvate and 1% glutamine.
# as §1, with “Standardized diet (PROVIMI KLIBA) and autoclaved tap water were provided ad libitum.” left out
# as §2
smiles,measurement,setting,value
"CC[C@@H]1C(=O)N(C)c2cnc(Nc3ccc(C(=O)N[C@H]4CC[C@H](N5CCN(CC6CC6)CC5)CC4)cc3OC)nc2N1C(C)C [Volasertib, N-[trans-4-[4-(cyclopropylmethyl)-1-piperazinyl]cyclohexyl]-4-[[(7R)-7-ethyl-5,6,7,8-tetrahydro-5-methyl-8-(1-methylethyl)-6-oxo-2-pteridinyl]amino]-3-methoxy-benzamide]",body weight gain (side effect profile),[1]; 10 mg/kg once a week i.v.,body weight gain was comparable to vehicle
same,body weight gain (side effect profile),[1]; 20 mg/kg once a week i.v.,body weight gain was comparable to vehicle
same,median T/C (ratio of median tumor volume of treated vs. control tumors),[2]; 10 mg/kg once a week i.v.,76%
same,median T/C (ratio of median tumor volume of treated vs. control tumors),[2]; 20 mg/kg once a week i.v.,38%
